Source: ChEMBL document CHEMBL4673179 (RSC Med Chem, 2020)
In brackets after ≈: the same amount, converted by molar mass. *1 amine or outer side, *2 acyl side, *3 side chain or, on linkers, in order; H or OH if unused. Where a SMILES comes first, the peptide text is derived from it. The star is where a group is joined. ξ: configuration not given here. DAMPA = CN(Cc1cnc2nc(N)nc(N)c2n1)c1ccc(C(=O)*)cc1; ξγGlu = O=C(O)C(CCC(=O)[*:2])N[*:1]

Tests used:
MDA-MB-231 [1] = experiment: Cytotoxicity against human MDA-MB-231 cells incubated for 30 mins by CellTiter-Glo luminescent Cell viability assay; type: functional, cell-based; details: MDA-MB-231, 0.5 h
MCF7 [2] = experiment: Antitumor activity against human MCF7 cells xenografted in BALB/c nude mouse assessed as tumor growth inhibition at 200 mg/kg, ip administered every other day for 2 weeks relative to control; type: functional; details: 336 h, read-out: TGI
MCF7 [3] = experiment: Cytotoxicity against human MCF7 cells incubated for 72 hrs by SRB assay; type: functional, cell-based; details: MCF7, 72 h
[4] = Half life in plasma (unknown origin); type: ADME, cell-free
[5] = Oral bioavailability in pediatric patient at > 40 mg/m2; type: ADME, organism-based; details: human, in vivo
[6] = Drug metabolism in human assessed as carboxypeptidase-G2 (unknown origin)- mediated drug conversion to DAMPA and glutamate; type: ADME
MCF7 [7] = experiment: Synergistic antitumor activity against human MCF7 cells xenografted in BALB/c nude mouse assessed as tumor growth inhibition at 50 mg/kg, ip administered once per week for 2 weeks in presence of AICA riboside relative to control; type: functional; details: 336 h, read-out: TGI
MCF7 [8] = experiment: Antitumor activity against human MCF7 cells xenografted in BALB/c nude mouse assessed as tumor growth inhibition at 50 mg/kg, ip administered once per week for 2 weeks relative to control; type: functional; details: 336 h, read-out: TGI
[9] = Aqueous solubility of compound; type: physicochemical; details: aqueous medium
[10] = Oral bioavailability in pediatric patient at <= 40 mg/m2; type: ADME, organism-based; details: human, in vivo
MDA-MB-231 [11] = experiment: Synergistic antiproliferative activity against human MDA-MB-231 cells assessed as cell survival rate at 0.1 uM incubated for 72 hrs in presence of alpha-tocopherol measured every 24 hrs by MTT assay relative to control; type: functional; details: read-out: Survival
MDA-MB-231 [12] = experiment: Synergistic antiproliferative activity against human MDA-MB-231 cells assessed as cell survival rate at 10 uM incubated for 72 hrs in presence of alpha-tocopherol measured every 24 hrs by MTT assay relative to control; type: functional; details: read-out: Survival
[13] = Drug excretion in patient bile at 10 mg/m2, po by HPLC method; type: ADME, organism-based; details: human, read-out: Drug excretion
MCF7 [14] = experiment: Antineoplastic activity against human MCF7 cells incubated for 72 hrs by prestoblue reduction assay; type: functional, cell-based; details: MCF7, 72 h
Albumin = Albumin (Homo sapiens, UniProt P02768); experiment: Binding affinity to human serum albumin by Scatchard plot; type: ADME, cell-free
[15] = Blood brain barrier permeability in iv dosed human; type: ADME, organism-based
MCF7 [16] = experiment: Antiproliferative activity against human MCF7 assessed as reduction in cell number at 10 uM measured after 6 days in presence of 100 uM AICAR by sulforhodamine B assay relative to control; type: functional; parameters: scale not given: the % may be the effect or the level left; details: time 6 day

Sequence of Albumin (P02768 whole entry): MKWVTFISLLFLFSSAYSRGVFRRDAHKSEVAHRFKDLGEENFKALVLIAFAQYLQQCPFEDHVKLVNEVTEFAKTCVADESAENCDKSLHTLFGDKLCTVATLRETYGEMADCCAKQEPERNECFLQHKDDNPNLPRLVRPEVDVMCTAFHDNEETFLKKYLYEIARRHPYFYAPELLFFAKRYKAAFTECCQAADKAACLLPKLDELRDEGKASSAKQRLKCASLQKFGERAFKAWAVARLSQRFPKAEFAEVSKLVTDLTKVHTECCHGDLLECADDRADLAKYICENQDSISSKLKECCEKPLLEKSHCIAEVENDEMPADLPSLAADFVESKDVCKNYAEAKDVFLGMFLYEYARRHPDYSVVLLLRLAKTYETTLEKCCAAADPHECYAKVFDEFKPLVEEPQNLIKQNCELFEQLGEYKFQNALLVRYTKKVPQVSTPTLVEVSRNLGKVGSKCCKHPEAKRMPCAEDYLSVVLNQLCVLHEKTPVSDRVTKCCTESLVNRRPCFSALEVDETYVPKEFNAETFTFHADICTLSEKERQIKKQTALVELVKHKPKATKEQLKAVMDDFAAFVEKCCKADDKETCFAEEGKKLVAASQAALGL

## CC[C@H](C)[C@H](NC(=O)[C@H](C)NC(=O)[C@@H](NC(=O)[C@H](Cc1ccc(O)cc1)NC(=O)CNC(=O)CCC(NC(=O)c1ccc(N(C)Cc2cnc3nc(N)nc(N)c3n2)cc1)C(=O)O)[C@@H](C)O)C(=O)N[C@@H](C)C(=O)N[C@@H](Cc1c[nH]c2ccccc12)C(=O)N[C@H](C(=O)N[C@@H](CCCCN)C(=O)N[C@@H](C)C(=O)N[C@@H](Cc1ccccc1)C(=O)N[C@H](C(=O)N[C@@H](CCCNC(=N)N)C(=O)N[C@@H](CCCCN)C(=O)N[C@@H](CC(C)C)C(=O)N[C@@H](CCCNC(=N)N)C(=O)N[C@@H](CCCCN)C(N)=O)[C@@H](C)CC)C(C)C (stereo partly drawn) ({DAMPA-ξγGlu}-GYTAIAWVKAFIRKLRK-NH2)
MDA-MB-231 [1]
  EC50: 3.8 µM

## NC(=O)c1ncn([C@@H]2O[C@H](CO)[C@@H](O)[C@H]2O)c1N [ACADESINE]
MCF7 [2]
  inhibition in vivo at 200 mg/kg: 42.2%

## COc1cccc2c1C(=O)c1c(O)c3c(c(O)c1C2=O)C[C@@](O)(C(=O)CO)C[C@@H]3O[C@H]1C[C@H](N)[C@@H](O)[C@H](C)O1 [EPIRUBICIN]
MCF7 [3]
  IC50: 0.55 µM

## CN(Cc1cnc2nc(N)nc(N)c2n1)c1ccc(C(=O)N[C@@H](CCC(=O)O)C(=O)O)cc1 [METHOTREXATE]
[4]
  half-life: 2 h
[5]
  bioavailability: 18%
[6]
  Drug metabolism: > 98%
MCF7 [7]
  inhibition in vivo at 50 mg/kg: 79.9%
MCF7 [8]
  inhibition in vivo at 50 mg/kg: 55%
[9]
  solubility: 10 µg/mL (≈ 22 µM)
[10]
  bioavailability: 42%
MDA-MB-231 [11]
  viability at 0.1 µM: > 60%
MDA-MB-231 [12]
  viability at 10 µM: 35%
[13]
  dose excreted: 8.7%
MCF7 [14]
  IC50: 0.015 µM
Albumin
  K: 820 M⁻¹
MCF7 [3]
  IC50: > 22 µM
[15]
  pBBB: 1.7%
MCF7 [16]
  Activity: 50%
